Patent US12440466B2, “Fatty acid derivatives for treating non-alcoholic steatohepatitis” (BASF AS, priority 2017, dated 2025)
Marks after values point to notes of the source that are not given here.

How the values were obtained:
CDAA/high-fat fed mice [1] = assay: Hepatic lipidomic analysis, CDAA/high-fat diet mouse model; format: in vivo; conditions: Compound A 112 mg/kg bw per day or equimolar EPA, orally
Method: In Biological Examples 1-7, studies were performed in male C56BL/6J mice (9 weeks old). Mice were fed either choline-sufficient (CS) or choline deficient high-fat diets (31% total calories; “CDAA/high-fat”). The NASH inducing diet was instigated 6 weeks prior to the commencement of treatment in order to design the study as a treatment/reversal set-up rather than prophylaxis.
In Biological Example 7, after 6 weeks of either the CS or CDAA/high-fat diet, mice were administered 112 mg/kg bw per day of Compound A, or an equimolar dose of eicosapentaenoic acid (EPA), delivered orally. Hepatic lipidomic analysis was performed in isolated liver samples from CS (n=9), Compound A (n=9) and EPA (n=8) groups.
To further understand the effects of Compound A on hepatic lipid metabolism, lipidomic analysis of CS- and CDAA/high-fat fed mice (“CD”) was performed in isolated liver tissue.

col1A1 = assay: Hepatic col1A1 content by quantitative IHC in ob/ob AMLN mice; format: in vivo, mouse; conditions: 8 weeks
Method: (§1) Obese diet-induced B6.V-Lepob/Jrj mice (ob/ob) are consistently fibrosis (liver) prone when cholesterol (2%), 40% fat (containing 18% trans-fatty acids) and 20% fructose are added to a high-caloric diet (i.e., AMLN high-fat diet). ob/ob mice on AMLN diet (termed ‘ob/ob AMLN mice’) develop steatohepatitis and fibrosis within a shorter timeframe ([…]) compared with wild-type C57BL/6 mice (AMLN mice) fed the same diet. ob/ob AMLN mice provide an obese diet-induced model of NASH that also allows the study of effects on glycemic control. Development of NASH in the ob/ob AMLN model is confirmed by biopsy.
(§2) In Biological Examples 10, 13-14, and 16-18, studies were performed in male ob/ob mice (5 weeks old) fed an AMLN high-fat diet for 18 weeks, then randomized into 6 groups (n=10 per group) to receive either Compound A (at 3 different daily doses, 45 mg/kg, 90 mg/kg or 135 mg/kg) via diet, 30 mg/kg bw per day obeticholic acid (OCA) via diet, or no treatment (vehicle) for a further 8 weeks. Assessment of NASH related parameters and fibrosis was made at study end by quantitative immune histochemistry (IHC) measurements.

TNF-α mRNA = assay: Hepatic TNF-α mRNA expression by qPCR, CDAA/high-fat diet mouse model; format: in vivo; conditions: CDAA/high-fat fed mice
From the text: (§3) Mice were fed either choline-sufficient (CS) or choline deficient high-fat diets (31% total calories; “CDAA/high-fat”). The NASH inducing diet was instigated 6 weeks prior to the commencement of treatment in order to design the study as a treatment/reversal set-up rather than prophylaxis.
After 6 weeks of either the CS- or CDAA diet, mice were orally administered Compound A or comparison Compound N, both at 2 doses, 0.15 mmol/kg bw/day (low-dose, LD) and 0.3 mmol/kg bw per day (high-dose, HD). The test substances were administered orally as admix to the high-fat diet. Hepatic fibrosis was assessed by both measurement of hydroxyproline (HYP) content and Sirius Red (SR) morphometry. Fibrosis, inflammation and metabolism related transcripts levels were measured by quantitative real-time polymerase chain reaction (qPCR).
Studies were performed in male C56BL/6J mice (9 weeks old). Mice were divided into 6 experimental groups (n=9 per group) containing either CS or CDAA/high-fat diets, as described above. The NASH inducing CDAA/high fat diet was instigated 6 weeks prior to the commencement of treatment in order to assess treatment/reversal rather than prophylaxis. […] Compound A was administered orally as admix to the high-fat diet whilst GLP-1 agonist was delivered via intraperitoneal injection (i.p.). Fibrosis, inflammation and metabolism related transcripts levels were measured by quantitative real-time polymerase chain reaction (qPCR) in isolated liver tissue.

CDAA/high-fat fed mice [2] = assay: Hepatic collagen fiber number, thickness and length by nonlinear multiphoton optical imaging, CDAA/high-fat diet mouse model; format: in vivo; conditions: Compound A 56 mg/kg bw per day orally
Method: as §3
In Biological Examples 6 and 7, mice were fed either CS or CDAA/high-fat diets as described above. […] The effect on hepatic collagen fiber number, thickness, and length was determined via nonlinear multiphoton optical imaging system in isolated liver samples from vehicle control (n=8), Compound A (n=9) and GLP-1R (n=8) fed groups.

[3] = test system: LX-2 human hepatic stellate cells; assay: LX-2 stellate cell proliferation by BrdU incorporation; format: cell-based; conditions: LX-2 cells, 24 hours
Method: Stellate cells are resident liver cells and the major cell type involved in the initiation and progression of liver fibrosis. In Biological Example 20, in vitro studies were performed on cultured human stellate cells (LX-2 cells) to assess direct effects of Compound A on these cells. Cells were treated for 24 hours with Compound A (10 μM, 25 μM, 50 μM, or 75 μM) or oleic acid (OA; 75 μM) and bromodeoxyuridine (BrdU) incorporation was assessed to determine effects on proliferation. A MTS (3-(4,5-dimethylthiazol-2-yl)-5-(3-carboxymethoxyphenyl)-2-(4-sulfophenyl)-2H-tetrazolium) assay was used to determine cell viability.
Cell proliferation of LX-2 human hepatic stellate cells treated for 24 hours with 10-75 μM of Compound A or oleic acid (OA) (75 μM) was assessed by BrdU incorporation. The results are normalised mean values ±S.E.M. of 5 independent experiments for icosabutate and 2 independent experiments for OA. […] The reduction in proliferation by Compound A was 25-34% at 24 hours whereas OA had no effect. The comparisons were made by one-way ANOVA with Dunnett's correction for multiple comparisons.

ob/ob AMLN mice = assay: Hepatic hydroxyproline (HYP) content in ob/ob AMLN mice; format: in vivo, mouse; conditions: 8 weeks; for HYP content, total: p<0.01; for HYP content, relative: p<0.05
Method: as §1, §2
To corroborate the anti-fibrotic effects seen with quantitative IHC, hepatic concentrations of hydroxyproline (HYP) were measured, as shown in FIG. 6E and FIG. 6F.

Compound: CC/C=C\C/C=C\C/C=C\C/C=C\C/C=C\CCCCOC(CC)C(=O)O (stereo not drawn) [Compound A, 2-((5Z,8Z,11Z,14Z,17Z)-icosa-5,8,11,14,17-pentaenyloxy)butanoic acid]
- hepatic cholesteryl ester (CDAA/high-fat fed mice [1]): significantly reduced
- hepatic diglycerides (DG) (CDAA/high-fat fed mice [1]): significantly reduced
- hepatic free fatty acids (FFA) (CDAA/high-fat fed mice [1]): significantly reduced
- hepatic triglyceride (TG) (CDAA/high-fat fed mice [1]): significantly reduced
- col1A1 content compared with pre-biopsy content (col1A1; Compound A 45 mg/kg): trend towards decreased col1A1 content
- col1A1 levels as a percentage of total surface area (col1A1; Compound A 45 mg/kg): not statistically significant
- col1A1 levels as a percentage of total surface area (col1A1; Compound A 90 mg/kg): significant reduction
- total col1A1 content (col1A1; Compound A 90 mg/kg): reduced
- col1A1 content compared with pre-biopsy content (col1A1; Compound A 90 mg/kg, decrease, p<0.005): statistically significant
- col1A1 content compared with pre-biopsy content (col1A1; Compound A 135 mg/kg): trend towards decreased col1A1 content
- col1A1 levels as a percentage of total surface area (col1A1; Compound A 135 mg/kg): not statistically significant
- total col1A1 content (col1A1; Compound A 135 mg/kg): reduced
- TNF-α (relative mRNA expression) (TNF-α mRNA; Compound A 0.3 mmol/kg bw/day oral, GLP-1a 0.4 mg/kg once weekly i.p., alone or combined): 0.65***
- TNF-a (relative mRNA expression) (TNF-α mRNA; HD 0.3 mmol/kg bw per day): 0.65***
- TNF-a (relative mRNA expression) (TNF-α mRNA; LD 0.15 mmol/kg bw/day): 0.75***
- collagen fiber length (CDAA/high-fat fed mice [2]): slight increases
- collagen fiber thickness (CDAA/high-fat fed mice [2]): slight increases
- short (<8.5 μm) and thin (<3.5 μm) collagen fibers (CDAA/high-fat fed mice [2]): almost complete disappearance
- reduction of collagen fiber numbers (CDAA/high-fat fed mice [2]; p=0.01): 51%
- proliferation (BrdU incorporation) compared to OA or vehicle ([3]; 25 μM, p<0.005): less proliferative
- proliferation (BrdU incorporation) compared to OA or vehicle ([3]; 50 μM, p<0.0001): less proliferative
- proliferation (BrdU incorporation) compared to OA or vehicle ([3]; 75 μM, p<0.005): less proliferative
- reduction in proliferation (BrdU incorporation) ([3]; Compound A 25-75 μM): 25-34%
- HYP content, total (ob/ob AMLN mice; Compound A 90 mg/kg): reduced
- HYP content, relative (ob/ob AMLN mice; Compound A 90 mg/kg): reduced
- HYP content, total (ob/ob AMLN mice; Compound A 135 mg/kg): reduced
- HYP content, relative (ob/ob AMLN mice; Compound A 135 mg/kg): reduced
